According to patent US20100125059A1, “1-BIARYLAZETIDINONE DERIVATIVE” (Teijin Pharma Limited, priority 2007, published 2010):
Read-outs that look alike come from different tables or passages of the source.

Columns and labels:
[1] = system: hamsters fed a high cholesterol diet; experiment: Measurement of lipid lowering effect in hamsters fed a high cholesterol diet; type: in vivo, Male Golden Syrian hamsters; conditions: Mesocricetus auratus, po, 168 h, gavage once daily, 7 days
Method in brief: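 Male Golden Syrian hamsters (6/group) on 0.5% cholesterol diet, dosed by gavage once daily in corn oil at 0.01 to 10 mg/kg; serum and liver sampled 4 h after last dose. TC, TG and LDL-C measured enzymatically; effects expressed as % suppression versus control and normal-diet groups.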

Caco-2 cells = experiment: Cholesterol absorption inhibition assay (in vitro), [14C] cholesterol mixed micelles; type: cell-based; conditions: Homo sapiens, 24 hours, read-out: cholesterol absorption inhibitory activity; for inhibition at 10 µM: concentration of 10 μM; for inhibition at 12.5 µM: concentration of 12.5 μM
Protocol: This assay measures cholesterol absorption inhibitory activity by adding mixed micelles containing [^14C] cholesterol to cells and measuring cholesterol taken in the cells as oleic acid cholesteryl ester. The assay is conducted after Caco-2 cells are seeded on multi-well plates and cultured (culture medium: DMEM containing 10% fetal bovine serum, 1% non-essential amino acids, 1% penicillin, and 1% streptomycin) for 2 weeks. To each well, the micelle solution (in an amount required to provide the following final concentrations: 600 μM of sodium oleate, 50 μM of phosphatidyl choline, 5 mM of sodium taurocholate, 2.5 μM of cholesterol, and 2.5 μM of [^14C] cholesterol) and a test compound solution (in an amount required to provide the final concentration of 0.5 to 25 μM) or a solvent as a control are added, and incubation is started at 37° C. 24 hours later, the culture medium is removed, and the lipid component is extracted with hexane/2-propanol (3:2, v/v) and applied onto thin-layer silica gel plates. After drying, each plate is eluted with a mixture of hexane, diethyl ether, and acetic acid in a ratio of 83:16:1. The plates are photoexposed on imaging plates and analyzed using BAS-2500 (FUJIFILM). The amounts of light exposure of the areas corresponding to the cholesteryl ester are calculated. Background is measured using a blank space of the plate. Inhibition rates are calculated using values obtained by subtracting the background values from both values of the control and the test sample, respectively, in accordance with the following equation. A test value is calculated as a percentage (%) with respect to the control.
In the Equation 1, A is the control group, BG is a background, and B is the test compound.
The following results were obtained from the measurement by this method on cholesterol absorption inhibitory activity of the compounds of the present invention. The following results were obtained by the evaluation using concentrations of 10 μM and/or 12.5 μM.

[2] = read-out: serum TG lowering effect (serum TG lowering rate)
[3] = read-out: serum TC lowering effect (suppression rate of an increase in serum TC concentration)
[4] = read-out: serum LDL-C lowering effect (suppression rate of an increase in serum LDL-C concentration)
[5] = read-out: liver TC lowering effect (suppression rate of an increase in liver TC concentration)

Row | SMILES | inhibition in vivo at 0.1 mg/kg [1, 2] [%] | inhibition at 10 µM (Caco-2 cells) [%] | inhibition at 12.5 µM (Caco-2 cells) [%] | other results
1 | O=C1[C@H](SCCc2ccc(F)cc2)[C@@H](c2ccc(O)cc2)N1c1ccc(-c2cccnc2)cc1 [Example 5, (3R,4R)-3-[2-(4-fluorophenyl)ethylthio]-4-(4-hydroxyphenyl)-1-[4-(pyridin-3-yl)phenyl]azetidin-2-one] | ≥ 20 | ≥ 50 | ≥ 60 | –
2 | COc1ncccc1-c1ccc(N2C(=O)[C@H](SC[C@H](O)c3ccc(F)cc3)[C@H]2c2ccc(O)cc2)cc1 [Example 6, (3R,4R)-3-[(2R)-2-(4-fluorophenyl)-2-hydroxyethylthio]-4-(4-hydroxyphenyl)-1-[4-(2-methoxypyridin-3-yl)phenyl]azetidin-2-one] | ≥ 20 | – | ≥ 60 | inhibition in vivo at 0.1 mg/kg [1, 3]: ≥ 50%
3 | COc1ccc(-c2ccc(N3C(=O)[C@H](SC[C@H](O)c4ccc(F)cc4)[C@H]3c3ccc(O)cc3)cc2)c(OC)n1 [Example 7, (3R,4R)-3-[(2R)-2-(4-fluorophenyl)-2-hydroxyethylthio]-1-[4-(2,6-dimethoxypyridin-3-yl)phenyl]-4-(4-hydroxyphenyl)azetidin-2-one] | ≥ 20 | ≥ 50 | – | –
4 | Cc1ccncc1-c1ccc(N2C(=O)[C@H](SC[C@H](O)c3ccc(F)cc3)[C@H]2c2ccc(O)cc2)cc1 [Example 8, (3R,4R)-3-[(2R)-2-(4-fluorophenyl)-2-hydroxyethylthio]-4-(4-hydroxyphenyl)-1-[4-(4-methylpyridin-3-yl)phenyl]azetidin-2-one] | ≥ 20 | ≥ 50 | – | –
5 | N#Cc1ccc(-c2ccc(N3C(=O)[C@H](SC[C@H](O)c4ccc(F)cc4)[C@H]3c3ccc(O)cc3)cc2)cn1 [Example 9, 5-(4-{(3R,4R)-3-[(2R)-2-(4-fluorophenyl)-2-hydroxyethylthio]-4-(4-hydroxyphenyl)-2-oxoazetidinyl}phenyl)pyridine-2-carbonitrile] | ≥ 20 | ≥ 50 | – | –
6 | O=C1[C@H](SC[C@H](O)c2ccc(F)cc2)[C@@H](c2ccc(O)cc2)N1c1ccc(-c2ccncc2Cl)cc1 [Example 12, (3R,4R)-3-[(2R)-2-(4-fluorophenyl)-2-hydroxyethylthio]-1-[4-(3-chloropyridin-4-yl)phenyl]-4-(4-hydroxyphenyl)azetidin-2-one] | – | ≥ 50 | – | inhibition in vivo at 0.1 mg/kg [1, 4]: ≥ 50%
7 | COc1ccc(-c2ccc(N3C(=O)[C@H](SC[C@H](O)c4ccc(F)cc4)[C@H]3c3ccc(O)cc3)cc2)cn1 [Example 14, (3R,4R)-3-[(2R)-2-(4-fluorophenyl)-2-hydroxyethylthio]-4-(4-hydroxyphenyl)-1-[4-(6-methoxypyridin-3-yl)phenyl]azetidin-2-one] | ≥ 20 | ≥ 50 | – | –
8 | O=C1[C@H](SC[C@H](O)c2ccc(F)cc2)[C@@H](c2ccc(O)cc2)N1c1ccc(-c2cccnc2Cl)cc1 [Example 15, (3R,4R)-3-[(2R)-2-(4-fluorophenyl)-2-hydroxyethylthio]-1-[4-(2-chloropyridin-3-yl)phenyl]-4-(4-hydroxyphenyl)azetidin-2-one] | ≥ 20 | ≥ 50 | – | inhibition in vivo at 0.1 mg/kg [1, 4]: ≥ 50%
9 | COc1ccncc1-c1ccc(N2C(=O)[C@H](SC[C@H](O)c3ccc(F)cc3)[C@H]2c2ccc(O)cc2)cc1 [Example 16, (3R,4R)-3-[(2R)-2-(4-fluorophenyl)-2-hydroxyethylthio]-4-(4-hydroxyphenyl)-1-[4-(4-methoxypyridin-3-yl)phenyl]azetidin-2-one] | – | ≥ 50 | ≥ 60 | inhibition in vivo at 0.01 mg/kg [1, 5]: ≥ 30%; inhibition in vivo at 0.1 mg/kg [1, 3]: ≥ 50%
10 | Cc1ccc(-c2ccc(N3C(=O)[C@H](SC[C@H](O)c4ccc(F)cc4)[C@H]3c3ccc(O)cc3)cc2)cn1 [Example 20, (3R,4R)-3-[(2R)-2-(4-fluorophenyl)-2-hydroxyethylthio]-4-(4-hydroxyphenyl)-1-[4-(6-methylpyridin-3-yl)phenyl]azetidin-2-one] | – | ≥ 50 | ≥ 60 | inhibition in vivo at 0.01 mg/kg [1, 5]: ≥ 30%; inhibition in vivo at 0.01 mg/kg [1, 4]: ≥ 30%
11 | CN(C)c1ccc(-c2ccc(N3C(=O)[C@H](SC[C@H](O)c4ccc(F)cc4)[C@H]3c3ccc(O)cc3)cc2)cn1 [Example 22, (3R,4R)-3-[(2R)-2-(4-fluorophenyl)-2-hydroxyethylthio]-1-[4-(6-dimethylaminopyridin-3-yl)phenyl]-4-(4-hydroxyphenyl)azetidin-2-one] | – | ≥ 50 | ≥ 60 | inhibition in vivo at 0.01 mg/kg [1, 5]: ≥ 30%; inhibition in vivo at 0.01 mg/kg [1, 4]: ≥ 30%; inhibition in vivo at 0.1 mg/kg [1, 4]: ≥ 50%; inhibition in vivo at 0.1 mg/kg [1, 3]: ≥ 50%
12 | COc1cc(O)ccc1[C@@H]1[C@@H](SC[C@H](O)c2ccc(F)cc2)C(=O)N1c1ccc(-c2cccnc2)cc1 [Example 24, (3R,4R)-3-[(2R)-2-(4-fluorophenyl)-2-hydroxyethylthio]-4-(4-hydroxy-2-methoxyphenyl)-1-[4-(pyridin-3-yl)phenyl]azetidin-2-one] | – | ≥ 50 | – | inhibition in vivo at 0.1 mg/kg [1, 5]: ≥ 50%; inhibition in vivo at 0.1 mg/kg [1, 3]: ≥ 50%
13 | O=C1[C@H](SC[C@H](O)c2ccc(Cl)c(Cl)c2)[C@@H](c2ccc(O)cc2)N1c1ccc(-c2cccnc2)cc1 [Example 28, (3R,4R)-3-[(2R)-2-(3,4-dichlorophenyl)-2-hydroxyethylthio]-4-(4-hydroxyphenyl)-1-[4-(pyridin-3-yl)phenyl]azetidin-2-one] | – | ≥ 50 | – | inhibition in vivo at 0.1 mg/kg [1, 5]: ≥ 50%; inhibition in vivo at 0.1 mg/kg [1, 3]: ≥ 50%
14 | O=C1[C@H](SC[C@H](O)c2ccc(C(F)(F)F)cc2)[C@@H](c2ccc(O)cc2)N1c1ccc(-c2cccnc2)cc1 [Example 43, (3R,4R)-3-{(2R)-2-hydroxy-2-[4-(trifluoromethyl)phenyl]ethylthio}-4-(4-hydroxyphenyl)-1-[4-(pyridin-3-yl)phenyl]azetidin-2-one] | – | ≥ 50 | – | –
15 | Cc1cc(N2C(=O)[C@H](SC[C@H](O)c3ccc(F)cc3)[C@H]2c2ccc(O)cc2)ccc1-c1cccnc1 [Example 47, (3R,4R)-3-[(2R)-2-(4-fluorophenyl)-2-hydroxyethylthio]-4-(4-hydroxyphenyl)-1-[3-methyl-4-(pyridin-3-yl)phenyl]azetidin-2-one] | – | ≥ 50 | – | –
16 | Cc1ncccc1-c1ccc(N2C(=O)[C@H](SC[C@H](O)c3ccc(F)cc3)[C@H]2c2ccc(O)cc2)cc1 [Example 54, (3R,4R)-3-[(2R)-2-(4-fluorophenyl)-2-hydroxyethylthio]-4-(4-hydroxyphenyl)-1-[4-(2-methylpyridin-3-yl)phenyl]azetidin-2-one] | – | ≥ 50 | – | –
17 | COc1ncccc1-c1ccc(N2C(=O)[C@H](SC[C@H](O)c3ccc(Cl)cc3)[C@H]2c2ccc(O)cc2)cc1 [Example 57, (3R,4R)-3-[(2R)-2-(4-chlorophenyl)-2-hydroxyethylthio]-4-(4-hydroxyphenyl)-1-[4-(2-methoxypyridin-3-yl)phenyl]azetidin-2-one] | – | ≥ 50 | ≥ 60 | –
18 | CN(C)c1ccc(-c2ccc(N3C(=O)[C@H](SC[C@H](O)c4ccc(Cl)cc4)[C@H]3c3ccc(O)cc3)cc2)cn1 [Example 88, (3R,4R)-3-[(2R)-2-(4-chlorophenyl)-2-hydroxyethylthio]-1-[4-(6-dimethylaminopyridin-3-yl)phenyl]-4-(4-hydroxyphenyl)azetidin-2-one] | – | – | ≥ 60 | –
19 | CC(=O)c1cncc(-c2ccc(N3C(=O)[C@H](SC[C@H](O)c4ccc(Cl)cc4)[C@H]3c3ccc(O)cc3)cc2)c1 [Example 105, (3R,4R)-3-[(2R)-2-(4-chlorophenyl)-2-hydroxyethylthio]-1-[4-(5-acetylpyridin-3-yl)phenyl]-4-(4-hydroxyphenyl)azetidin-2-one] | – | – | ≥ 60 | –
